Reference: PMC3477264 (ACS chemical biology, 2012)

Tests used:
[1] = target: T1, cyclodiphosphate synthase IspF (Escherichia coli, UniProt P62617); experiment: HPLC-based assay, […] inhibition of the IspF-MEP complex at […] FDP; type: biochemical; settings: read-out: % inhibition at 500 μM
T1 sequence (P62617 1-159): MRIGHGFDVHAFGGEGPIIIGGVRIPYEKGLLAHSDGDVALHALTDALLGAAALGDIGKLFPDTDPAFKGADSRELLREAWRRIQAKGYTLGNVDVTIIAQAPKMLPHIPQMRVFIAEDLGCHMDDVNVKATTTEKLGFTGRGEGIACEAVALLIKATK

[2] = target: T1, cyclodiphosphate synthase IspF; experiment: HPLC-based assay of CMP formation by purified IspF; type: biochemical

| SMILES | inhibition at 500 µM [1] [%] | AC50 [2] [µM] |
| --- | --- | --- |
| CC(C)=CCC/C(C)=C/CC/C(C)=C/CO[P@@](=O)(O)OP(=O)(O)O (stereo in doubt) [FDP, farnesyl diphosphate] | 43 | – |
| C[C@](O)(CO)[C@H](O)CO [ME, 2C-methyl-D-erythritol] | – | 106 ± 14 |
| C[C@](O)(CO)[C@H](O)COP(=O)(O)O [MEP, 2C-methyl-D-erythritol 4-phosphate] | – | 133 ± 33 |
